Experimental data taken from ChEMBL document CHEMBL4342403, “New evolutions in the BACE1 inhibitor field from 2014 to 2018” (Bioorg Med Chem Lett, 2019).

Assays:
Cathepsin D = Cathepsin D (Homo sapiens, UniProt P07339); assay: Inhibition of recombinant Cathepsin D (unknown origin) expressed in CHO cells preincubated for 1 hr followed by substrate addition and measured after 1 hr by FRET assay; assay type: cell-based
Rattus norvegicus [1] = assay: In vivo inhibition of BACE1 in Sprague Dawley rat assessed as reduction in amyloidbeta 40 level in brain at 10 mg/kg, po measured at 4 hrs post dose by sandwich ELISA relative to control; assay type: functional
Rattus norvegicus [2] = assay: In vivo inhibition of BACE1 in Sprague Dawley rat assessed as reduction in amyloidbeta 40 level in CSF at 10 mg/kg, po measured at 4 hrs post dose by sandwich ELISA relative to control; assay type: functional
Beta-secretase 1 [3] = biological target: T1, Beta-secretase 1 (Homo sapiens, UniProt P56817); assay: Inhibition of BACE1 (unknown origin) preincubated for 1 hr followed by substrate addition and measured after 1 hr by FRET assay
Beta-secretase 1 [4] = biological target: T1, Beta-secretase 1; assay: Inhibition of BACE1 (unknown origin) assessed as reduction in amyloidbeta 40 level after 24 hrs by cell-based sandwich ELISA

T1 sequence (P56817 whole entry): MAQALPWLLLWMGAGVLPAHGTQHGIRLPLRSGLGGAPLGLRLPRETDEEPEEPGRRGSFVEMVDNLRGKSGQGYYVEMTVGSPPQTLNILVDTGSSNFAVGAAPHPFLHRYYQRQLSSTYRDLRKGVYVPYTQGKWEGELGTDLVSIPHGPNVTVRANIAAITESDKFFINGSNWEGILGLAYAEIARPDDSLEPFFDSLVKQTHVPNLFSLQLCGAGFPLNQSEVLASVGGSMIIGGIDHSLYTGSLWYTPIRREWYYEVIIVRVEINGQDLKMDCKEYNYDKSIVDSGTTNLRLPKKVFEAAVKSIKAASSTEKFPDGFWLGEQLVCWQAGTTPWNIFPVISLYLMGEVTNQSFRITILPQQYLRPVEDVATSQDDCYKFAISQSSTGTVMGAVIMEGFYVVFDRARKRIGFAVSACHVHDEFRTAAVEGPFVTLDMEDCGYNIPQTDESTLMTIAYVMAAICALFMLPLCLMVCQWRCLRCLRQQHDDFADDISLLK
Cathepsin D, sequence (P07339 65-162 limits assumed): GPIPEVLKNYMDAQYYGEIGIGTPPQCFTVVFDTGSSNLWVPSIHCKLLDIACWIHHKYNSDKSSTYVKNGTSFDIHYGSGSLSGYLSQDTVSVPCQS
Cathepsin D, sequence (P07339 169-412 limits assumed): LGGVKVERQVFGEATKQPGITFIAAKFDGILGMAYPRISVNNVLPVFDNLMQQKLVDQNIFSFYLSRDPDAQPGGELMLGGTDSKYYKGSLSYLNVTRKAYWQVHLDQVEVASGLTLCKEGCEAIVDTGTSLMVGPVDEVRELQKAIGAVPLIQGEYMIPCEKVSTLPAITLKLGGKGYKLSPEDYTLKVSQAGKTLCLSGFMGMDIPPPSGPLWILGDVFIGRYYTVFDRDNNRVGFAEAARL

Compound: Cc1cc(Cl)cnc1C(=O)Nc1ccc(F)c([C@@]2(C)N=C(N)[C@]3(C)CC[C@H]2S3(=O)=O)c1
- IC50 (Cathepsin D): 1740 µM
- inhibition in vivo at 10 mg/kg (Rattus norvegicus [1]): 66%
- inhibition in vivo at 10 mg/kg (Rattus norvegicus [2]): 76%
- IC50 (Beta-secretase 1 [3]): 0.002 µM
- IC50 (Beta-secretase 1 [4]): 0.002 µM
